Assays:
[1] = tested on: aspirin-induced gastric bleeding; type: in vivo, cats; conditions: cat, 30 min, aspirin 10 mg topical, no glyceryl guaiacolate
Method: Fasted cats weighing […] were anesthetized with phenobarbital sodium (130 mg/kg, i.p.). Glyceryl guaiacolate was administered intravenously for a total of 2 hrs. beginning 60 min. prior to the topical application of the aspirin (10 mg) to the gastric mucosa. Throughout the experiment, artificial gastric juice (USP, pH 1.3) bathed the mucosa by means of the specially designed chamber. The number of bleeding sites occurring at various exposure sites were recorded at 15, 30 and 60 min. Glyceryl guaiacolate was given at doses of 10 and 30 mg/kg/hr via a previously cannulated jugular vein using an infusion pump (Harvard Apparatus Co., Model 1202). […] An important point is that with 30 mg/kg/hr, i.v., of glyercyl guaiacolate there was no bleeding at 30 min. compared with an average of 14 bleeding sites when no glyceryl guaiacolate was adminsitered. A total of 23 cats were used and there was a minimum of 24 aspirin exposure sites for each dose of glyceryl guaiacolate.

[2] = tested on: Carrageenan pleural effusion; experiment: Evans Blue-Carrageenan Pleural Effusion Test; type: in vivo, rats; conditions: rat, aspirin 150 mg/kg oral, P <0.05
Text: The effect of metaxalone (Compound 15) on the anti-inflammatory activity of aspirin in rats was studied using a modification of the Evans Blue-Carrageenan Pleural Effusion Test [Sancilio, L. F., Journal of Pharmacology and Experimental Therapeutics 168, 199-204 (1969)].

CC(=O)Oc1ccccc1C(=O)O [Aspirin, aspirin]
average number of bleeding sites [1]: 14 bleeding sites
Pleural Fluid ([2]; ± S.D.): 4.2 ± 0.28 mL
% Decrease in Pleural Fluid vs Control [2]: 38%

From patent publication US4036957A, “Phenoxy compounds in combinations to suppress gastric bleeding in aspirin therapy” (priority 1975, dated 1977)
